Data from the supplement of paper PMC10307832.

What was measured:
Assay in all cases: relative viability (nuclei count vs DMSO), 5 days (fraction); higher = more cells survive
Bleomycin + Pemetrexed = compound: CC1=C(N=C(N=C1N)[C@H](CC(=O)N)NC[C@@H](C(=O)N)N)C(=O)N[C@@H]([C@H](C2=CN=CN2)OC3C(C(C(C(O3)CO)O)O)OC4C(C(C(C(O4)CO)O)OC(=O)N)O)C(=O)N[C@H](C)[C@H]([C@H](C)C(=O)N[C@@H]([C@@H](C)O)C(=O)NCCC5=NC(=CS5)C6=NC(=CS6)C(=O)NCCC[S+](C)C)O [Bleomycin] + Nc1nc2[nH]cc(CCc3ccc(C(=O)N[C@@H](CCC(=O)O)C(=O)O)cc3)c2c(=O)[nH]1 [Pemetrexed] (partner 0.2 µM); conditions: main component drawn
In short: (§1)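 Lung cancer cell lines were seeded in 1536-well plates and dosed by pin tool the next day, with either a single drug or a fixed anchor-drug dose combined with five library-drug doses (not always all listed) spaced in √10 steps. Five days later, one step fixed the cells and stained their nuclei (final 0.05% Triton X-100, 1% formaldehyde, 1 ug/ml Hoechst), and nuclei were counted on 4× images. Relative viability is the nuclei count in treated wells divided by the count in vehicle wells, and each value is the median of duplicate plates.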

Etoposide + Alpelisib = compound: COc1cc([C@@H]2c3cc4c(cc3[C@@H](O[C@@H]3O[C@@H]5CO[C@@H](C)O[C@H]5[C@H](O)[C@H]3O)[C@H]3COC(=O)[C@H]23)OCO4)cc(OC)c1O [Etoposide] + Cc1nc(NC(=O)N2CCC[C@H]2C(N)=O)sc1-c1ccnc(C(C)(C)C(F)(F)F)c1 [Alpelisib] (partner 2 µM)
In short: as §1

Bleomycin + Palbociclib = compound: CC1=C(N=C(N=C1N)[C@H](CC(=O)N)NC[C@@H](C(=O)N)N)C(=O)N[C@@H]([C@H](C2=CN=CN2)OC3C(C(C(C(O3)CO)O)O)OC4C(C(C(C(O4)CO)O)OC(=O)N)O)C(=O)N[C@H](C)[C@H]([C@H](C)C(=O)N[C@@H]([C@@H](C)O)C(=O)NCCC5=NC(=CS5)C6=NC(=CS6)C(=O)NCCC[S+](C)C)O [Bleomycin] + CC(=O)c1c(C)c2cnc(Nc3ccc(N4CCNCC4)cn3)nc2n(C2CCCC2)c1=O [Palbociclib] (partner 0.5 µM); conditions: main component drawn
In short: as §1

Etoposide + Decitabine = compound: COc1cc([C@@H]2c3cc4c(cc3[C@@H](O[C@@H]3O[C@@H]5CO[C@@H](C)O[C@H]5[C@H](O)[C@H]3O)[C@H]3COC(=O)[C@H]23)OCO4)cc(OC)c1O [Etoposide] + Nc1ncn([C@H]2C[C@H](O)[C@@H](CO)O2)c(=O)n1 [Decitabine] (partner 2 µM)
In short: as §1

Cell Line	relative viability (Bleomycin + Pemetrexed; first compound 0.01 µM)	relative viability (Bleomycin + Pemetrexed; first compound 0.03162 µM)	relative viability (Bleomycin + Pemetrexed; first compound 0.1 µM)	relative viability (Bleomycin + Pemetrexed; first compound 0.3162 µM)	relative viability (Bleomycin + Pemetrexed; first compound 1 µM)	relative viability (Etoposide + Alpelisib; first compound 0.03162 µM)	relative viability (Etoposide + Alpelisib; first compound 0.1 µM)	relative viability (Etoposide + Alpelisib; first compound 0.3162 µM)	relative viability (Etoposide + Alpelisib; first compound 1 µM)	relative viability (Bleomycin + Palbociclib; first compound 0.01 µM)	relative viability (Bleomycin + Palbociclib; first compound 0.03162 µM)	relative viability (Bleomycin + Palbociclib; first compound 0.1 µM)	relative viability (Bleomycin + Palbociclib; first compound 0.3162 µM)	relative viability (Bleomycin + Palbociclib; first compound 1 µM)	relative viability (Etoposide + Decitabine; first compound 0.01 µM)	relative viability (Etoposide + Decitabine; first compound 0.03162 µM)	relative viability (Etoposide + Decitabine; first compound 0.1 µM)	relative viability (Etoposide + Decitabine; first compound 0.3162 µM)	relative viability (Etoposide + Decitabine; first compound 1 µM)	relative viability (Etoposide + Alpelisib; first compound 0.01 µM)
NCI-H2087	0.645	0.619	0.622	0.241	0.186	0.985	1.01	0.512	0.255	0.222	0.236	0.221	0.118	0.147	0.287	0.3	0.276	0.214	0.102	
COR-L23	0.191	0.203	0.193	0.153	0.146	0.891	0.771	0.461	0.219	0.184	0.237	0.151	0.115	0.0887	0.407	0.471	0.337	0.377	0.176	0.543
NCI-H2126	0.728	0.774	0.629	0.567	0.611	0.75	0.52	0.723	0.306	0.338	0.384	0.298	0.33	0.319	0.584	0.636	0.486	0.476	0.323	0.75
LC-2-ad	0.267	0.265	0.251	0.254	0.219	0.911	0.846	0.532	0.172	0.454	0.541	0.421	0.3	0.31	0.778	0.682	0.922	0.741	0.566	0.888
NCI-H1915	0.428	0.394	0.31	0.211	0.146	1.17	0.967	0.99	0.631	0.419	0.389	0.332	0.173	0.131	0.267	0.261	0.256	0.26	0.245	0.999
NCI-H1793	0.739	0.729	0.692	0.134	0.191	0.78		0.718	0.341	0.316	0.302	0.313	0.216	0.19		0.497	0.454	0.345	0.236	0.563
NCI-H2023	0.178	0.204	0.157	0.136	0.0973	0.615	0.543	0.388	0.138	0.333	0.302	0.25	0.125	0.13	0.246	0.247	0.204	0.146	0.109	0.597
COR-L 105	0.949	1.06	0.971	0.468	0.573	1.06	1.12	0.807	0.56	0.389	0.37	0.435	0.392	0.395	0.616	0.613	0.567	0.605	0.569	1.08
SK-LU-1	0.934	1.04	0.965	0.473	0.465	0.875	0.648	0.299	0.233	0.356	0.461	0.35	0.312	0.332	0.561	0.604	0.513	0.306	0.252	0.781
LXF-289	0.852	0.901	0.845	0.588	0.218	1.07	1.04	0.655	0.244	0.58	0.571	0.606	0.324	0.221	0.378	0.383	0.306	0.307	0.194	1.02
PC-3 [JPC-3]	1.03	1.18	0.948	0.647	0.526	1.05	0.833	0.984	0.777	0.487	0.596	0.525	0.53	0.488	0.813	0.921	0.836	0.737	0.692	0.946
NCI-H661	0.886	0.821	0.688	0.412	0.366	0.61	0.413	0.388	0.3	0.39	0.398	0.354	0.335	0.312	0.558	0.671	0.477	0.46	0.343	0.995
NCI-H1666	0.72	0.659	0.804	0.578	0.673	0.931	0.69	0.315	0.28	0.599	0.655	0.594	0.578	0.572	0.746	0.798	0.693	0.582	0.452	0.929
NCI-H2085	0.878	0.954	0.811	0.347	0.447	0.939	0.824	0.552	0.35	0.443	0.455	0.432	0.324	0.355	0.609	0.573	0.484	0.373	0.374	0.882
NCI-H1734	0.392	0.406	0.383	0.342	0.273	0.822	0.509	0.517	0.381	0.29	0.245	0.27	0.207	0.172	0.517	0.513	0.454	0.379	0.314	0.698
EMC-BAC-2	0.416	0.4	0.419	0.476	0.324	0.65	0.522	0.238	0.15	0.378	0.433	0.414	0.333	0.293	0.938	0.893	0.606	0.323	0.298	0.711
NCI-H1993	0.649	0.584	0.496	0.469	0.514	0.719	0.649	0.624	0.533	0.579	0.525	0.535	0.451	0.329		0.609	0.482	0.599	0.461	0.741
NCI-H650	0.708	0.951	0.78	0.479	0.34	0.977	0.949	0.5	0.24	0.282	0.34	0.307	0.255	0.2	0.318	0.339	0.278	0.205	0.174	0.945
NCI-H1792	0.71	0.756	0.87	0.426	0.312	0.415	0.374	0.549	0.302	0.613	0.624	0.592	0.482	0.362	0.515	0.741		0.5	0.331	0.61
SW 1573	0.755	0.691	0.572	0.44	0.225	0.857	0.55	0.404	0.223	0.277	0.3	0.265	0.144	0.167	0.434	0.5	0.243	0.159	0.0836	0.6
NCI-H2009	0.889	1.03	1.04	0.736	0.503	1.18	1.19	1.06	0.388	0.202	0.164	0.215	0.16	0.192	0.396	0.425	0.316	0.354	0.234	1.12
LOU-NH91	0.423	0.38	0.368	0.315	0.271	0.744	0.593	0.62	0.469	0.476	0.449	0.428	0.35	0.364	0.783	0.876	0.778	0.766	0.54	0.7
NCI-H3122	0.214	0.205	0.201	0.165	0.166	0.752	0.728	0.595	0.402	0.198	0.186	0.18	0.132	0.148	0.465	0.536	0.384	0.385	0.249	0.748
LCLC-97TM1	0.169	0.165	0.189	0.141	0.0948	0.309	0.132	0.139	0.107	0.154	0.211	0.157	0.112	0.101	0.253	0.222	0.302	0.129	0.11	
NCI-H647	0.198	0.153	0.196	0.0716	0.0627	1.22	1.02	0.429	0.125	0.189	0.207	0.138	0.119	0.0651	0.363	0.369	0.31	0.193	0.175	1.19
NCI-H838	0.247	0.227	0.232	0.19	0.19	1.08	0.887	0.666	0.387	0.22	0.173	0.169	0.153	0.129	0.445	0.487	0.49	0.367	0.248	0.951
H3255	0.608	0.538	0.507	0.479	0.405	0.758	0.448	0.585	0.298	0.324	0.324	0.283	0.312	0.279	0.547	0.94	0.417	0.474	0.318	0.606
SK-MES-1	0.767	0.899	0.807	0.379	0.213	0.957	0.496	0.518	0.249	0.313	0.306	0.329	0.254	0.204	0.344	0.481	0.35	0.238	0.199	0.746
NCI-H1437	0.347	0.303	0.312	0.288	0.316	0.945	0.883	0.42	0.256	0.306	0.224	0.293	0.256	0.221	0.537	0.632	0.568	0.441	0.332	0.915
